Measured values from patent publication US20150223452A1, “COMPOSITION COMPRISING A PESTICIDAL TERPENE MIXTURE AND A FUNGICIDE” (priority 2012, published 2015).
Where two headings read alike, the source gives them in different places.

Key:
[1] = system: Venturia inaequalis; experiment: Venturia test (apples)/preventive
[2] = system: Sphaerotheca fuliginea; experiment: Sphaerotheca test (cucumbers)/preventive; type: in vivo; conditions: 7 days after inoculation
[3] = system: two spotted spidermite (Tetranychus urticae); experiment: Tetranychus urticae spray test, OP-resistant; type: in vivo; conditions: 500 g ai/ha; mortality, French beans
Experimental: (§1) Solvent: 78.0 parts by weight acetone • 1.5 parts by weight dimethylformamide
(§2) Emulsifier: 0.5 parts by weight alkylarylpolyglycolether
(§3) To produce a suitable preparation of active compound, 1 part by weight of active compound is mixed with the stated amount of solvent and emulsifier, and the concentrate is diluted with emulsifier-containing water to the desired concentration.
French beans (Phaseolus vulgaris) which are heavily infested with all stages of the two spotted spidermite (Tetranychus urticae), are sprayed with a preparation of the active ingredient of the desired concentration.
After the specified period of time, mortality in % is determined. 100% means that all spider mites have been killed and 0% means that none of the spider mites have been killed. The mortality values determined thus are recalculated using the Colby-formula (see sheet 1).

[4] = system: Phytophthora infestans; type: in vivo; conditions: 3 days after inoculation
[5] = system: Botrytis cinerea; experiment: Botrytis test (beans)/preventive; conditions: 10 ppm a.i.; size of lesions 2 days after inoculation
Experimental: After the spray coating has dried on, 2 small pieces of agar covered with growth of Botrytis cinerea are placed on each leaf.
2 days after the inoculation, the size of the lesions on the leaves is evaluated.

[6] = system: green peach aphid (Myzus persicae); experiment: Myzus persicae spray test; type: in vivo; conditions: 500 g ai/ha; mortality, Chinese cabbage leaf-disks
Experimental: as §1, §2, §3
Chinese cabbage (Brassica pekinensis) leaf-disks infected with all instars of the green peach aphid (Myzus persicae) are sprayed with a preparation of the active ingredient of the desired concentration.
After the specified period of time, mortality in % is determined. 100% means that all aphids have been killed; 0% means that none of the aphids have been killed. The mortality values determined thus are recalculated using the Colby-formula (see above).

O=C(NCCc1ncc(C(F)(F)F)cc1Cl)c1ccccc1C(F)(F)F [F70 fluopyram, fluopyram]
Efficacy in % found ([1]; 4 ppm a.i., first series): 4%

CSC1=N[C@@](C)(c2ccccc2)C(=O)N1Nc1ccccc1 [Fenamidone (F114), fenamidone]
Efficacy in % found ([2]; 50 ppm a.i.): 20%

N#Cc1c[nH]cc1-c1cccc2c1OC(F)(F)O2 [Fludioxonil (F248), fludioxonil]
Efficacy in % found ([2]; 50 ppm a.i.): 62%

fosetyl-aluminium [Fosetyl-Al (F281)]
Efficacy in % after 6 d [3]: 70%

mancozeb [Mancozeb (F174)]
Efficacy in % found ([4]; 20 ppm a.i.): 45%

COCC(=O)N(c1c(C)cccc1C)C(C)C(=O)OC (stereo not drawn) [Metalaxyl (F241), metalaxyl]
Efficacy in % found ([4]; 5 ppm a.i.): 5%

fenhexamid [Fenhexamid (F16)]
Efficacy in % found [5]: 880%

CO/C=C(/C(=O)OC)c1ccccc1Oc1cc(Oc2ccccc2C#N)ncn1 [Azoxystrobin (F107), azoxystrobin]
Efficacy in % found ([4]; 0.5 ppm a.i.): 30%

metalaxyl-M (mefenoxam) [Mefenoxam (F242)]
Efficacy in % found ([4]; 5 ppm a.i.): 3%

CCCN(CC)CC1COC2(CCC(C(C)(C)C)CC2)O1 (stereo not drawn) [Spiroxamine (F46), spiroxamine]
Efficacy in % found ([2]; 50 ppm a.i.): 19%

COC(=O)N(OC)c1ccccc1COc1ccn(-c2ccc(Cl)cc2)n1 [Pyraclostrobin (F121), pyraclostrobin]
Efficacy in % after 6 d [6]: 70%

Cc1nn(C)c(F)c1C(=O)Nc1ccccc1C(C)CC(C)C (stereo not drawn) [F84 penflufen, penflufen]
Efficacy in % found ([1]; 2 ppm a.i., first series): 0%

CC(C)Oc1cccc(NC(=O)c2ccccc2C(F)(F)F)c1 [Flutolanil (F71), flutolanil]
Efficacy in % found ([1]; 100 ppm a.i., second series): 4%

Cn1cc(C(=O)Nc2ccccc2-c2cc(F)c(F)c(F)c2)c(C(F)F)n1 [F72 fluxapyroxad, fluxapyroxad]
Efficacy in % found ([2]; 1 ppm a.i.): 29% | Efficacy in % found ([1]; 0.5 ppm a.i., first series): 43%
